# ChEMBL document CHEMBL5728033 (2020)
# Target: Beta-lactamase (Escherichia coli K-12, UniProt P00811)
# Assay: Inhibition of Beta-Lactamase Enzymes: A buffer consisting of 0.1 M sodium phosphate (pH 7.0), 10 mM NaHCO3, and 0.005% Triton X-100 was used for all enzymes. The chromogenic substrate nitrocefin (SynGene, Bangalore, India) was used at 100 μM. Enzyme activity was monitored by the 490 nm absorbance increase upon nitrocefin hydrolysis. Assays were performed in clear polystyrene 384-well plates (Greiner Bio-One, Monroe, N.C.). Absorbance was measured for 1 hour at 30-s intervals using a Spectramax absorbance plate reader (Molecular Devices, Sunnyvale, Calif.). Measurement of beta-lactamase inhibition by INHIBITOR employed serial 3-fold dilutions of the inhibitor in assay buffer, ranging from 100 μM to 62.7 pM. A background absorbance progress curve for a control lacking enzyme and inhibitor was subtracted from each progress curve.
# Type: single protein
# Beta-lactamase, sequence (P00811 whole entry): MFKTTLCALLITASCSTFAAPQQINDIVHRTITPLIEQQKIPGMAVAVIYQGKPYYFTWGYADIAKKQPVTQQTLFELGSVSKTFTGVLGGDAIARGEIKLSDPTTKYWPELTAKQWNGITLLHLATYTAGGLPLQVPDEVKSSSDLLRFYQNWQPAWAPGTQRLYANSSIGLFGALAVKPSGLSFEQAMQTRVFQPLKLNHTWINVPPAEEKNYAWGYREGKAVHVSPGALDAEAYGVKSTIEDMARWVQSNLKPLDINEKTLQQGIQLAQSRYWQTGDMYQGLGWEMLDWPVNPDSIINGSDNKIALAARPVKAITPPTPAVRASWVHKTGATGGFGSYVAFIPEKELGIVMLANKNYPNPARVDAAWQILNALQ
row,Structure (SMILES),IC50
1,CC1=C[C@@H]2CN(C(=O)N2O[C@@H](F)C(=O)O)[C@@H]1C(=O)NOC[C@@H]1CCC(=O)N1,53 nM
2,CC1=C[C@@H]2CN(C(=O)N2O[C@@H](F)C(=O)O)[C@@H]1C(=O)NOC[C@@H]1CC(F)(F)CN1,40 nM
3,CC1=C[C@@H]2CN(C(=O)N2OC(C)(F)C(=O)O)[C@@H]1C(N)=O (mixture of isomers),400 nM
4,CC1=C[C@@H]2CN(C(=O)N2O[C@@H](F)C(=O)O)[C@@H]1C(=O)NCCNS(N)(=O)=O,14 nM
5,CC1=C[C@@H](C(N)=O)N2C[C@@H]1N(O[C@H](F)C(=O)O)C2=O,160 nM
6,CC1=C[C@@H]2CN(C(=O)N2O[C@@H](F)C(=O)O)[C@@H]1C(N)=O,71 nM
7,NC(=O)[C@@H]1CC[C@@H]2CN1C(=O)N2O[C@H](F)C(=O)O,2000 nM
8,CC1=C[C@@H]2CN(C(=O)N2O[C@@H](F)C(=O)O)[C@@H]1C(=O)NCC[C@@H]1CCC(=O)N1,10 nM
9,NC(=O)[C@@H]1C(C2CC2)=C[C@@H]2CN1C(=O)N2O[C@H](F)C(=O)O,22 nM
10,CC1=C[C@@H]2CN(C(=O)N2O[C@@H](F)C(=O)O)[C@@H]1C(=O)NCNS(N)(=O)=O,2.1 nM
11,CC1=C[C@@H]2CN(C(=O)N2O[C@@H](F)C(=O)O)[C@@H]1C(=O)NCO,17 nM
12,CC(=O)NCNC(=O)[C@@H]1C(C)=C[C@@H]2CN1C(=O)N2O[C@@H](F)C(=O)O,3.1 nM
13,CC1=C[C@@H]2CN(C(=O)N2O[C@@H](F)C(=O)O)[C@@H]1C(=O)NCCC(N)=O,4.4 nM
14,CC1=C[C@@H]2CN(C(=O)N2O[C@H](F)C(=O)O)[C@@H]1C(N)=O,11 nM
15,CC1=C[C@@H]2CN(C(=O)N2O[C@@H](F)C(=O)O)[C@@H]1C(=O)NCCS(N)(=O)=O,4.1 nM
16,CC1=C[C@@H](C(N)=O)N2C[C@@H]1N(O[C@@H](F)C(=O)O)C2=O,300 nM
17,CC1=C[C@@H](C#N)N2C[C@@H]1N(O[C@H](F)C(=O)O)C2=O,590 nM
18,CC1=C[C@@H]2CN(C(=O)N2OC(F)(F)C(=O)O)[C@@H]1C(N)=O,12 nM
19,CC1=C[C@@H]2CN(C(=O)N2O[C@@H](F)C(=O)O)[C@@H]1C(=O)NCCNS(C)(=O)=O,7.3 nM

row,Structure (SMILES),IC50
1,CC1=C[C@@H]2CN(C(=O)N2OC(F)C(=O)O)[C@@H]1C(N)=O (mixture of isomers),20 nM
2,CC1=C[C@@H]2CN(C(=O)N2O[C@@H](F)C(=O)O)[C@@H]1C(=O)NCC#N,14 nM
3,CC1=C[C@@H]2CN(C(=O)N2OC(F)C(=O)O)[C@@H]1C(=O)NCc1cnccn1 (some centres not stated),1.8 nM
4,CC1=C[C@@H]2CN(C(=O)N2OC(F)C(=O)O)[C@@H]1c1nnc(C(N)=O)o1 (some centres not stated),180 nM
5,CC1=C[C@@H]2CN(C(=O)N2O[C@@H](F)C(=O)O)[C@@H]1C(=O)NCCCS(N)(=O)=O,22 nM
6,O=C(O)C(F)ON1C(=O)N2C[C@H]1CC[C@H]2C(=O)NC1CCNCC1 (some centres not stated),1600 nM
7,CC1=C[C@@H]2CN(C(=O)N2O[C@@H](F)C(=O)O)[C@@H]1C(=O)NOC[C@@H]1CCCN1,410 nM
8,CC(=O)NNC(=O)[C@@H]1C(C)=C[C@@H]2CN1C(=O)N2OC(F)C(=O)O (some centres not stated),8.3 nM
9,NC(=O)[C@@H]1C(C2CC2)=C[C@@H]2CN1C(=O)N2O[C@@H](F)C(=O)O,95 nM
10,CC1=C[C@@H]2CN(C(=O)N2O[C@@H](F)C(=O)O)[C@@H]1C(=O)NCc1ncco1,9.3 nM
11,CC1=C[C@@H]2CN(C(=O)N2OCC(=O)O)[C@@H]1C(N)=O,1200 nM
12,CC1=C[C@@H]2CN(C(=O)N2O[C@@H](F)C(=O)O)[C@@H]1C(=O)NCc1cnccn1,2 nM
13,CC1=C[C@@H]2CN(C(=O)N2O[C@@H](F)C(=O)O)[C@@H]1C(=O)NC1COC1,54 nM
14,CC1=C[C@@H]2CN(C(=O)N2O[C@@H](F)C(=O)O)[C@@H]1CNC(=O)OC(C)(C)C,44000 nM
15,CC1=C[C@@H]2CN(C(=O)N2O[C@@H](F)C(=O)O)[C@@H]1C(=O)NOCC1CC1,130 nM
16,CC1=C[C@@H](C(N)=O)N2C[C@@H]1N(OCC(=O)O)C2=O,4600 nM
17,CC1=C[C@@H]2CN(C(=O)N2O[C@@H](F)C(=O)O)[C@@H]1C(=O)NOCCS(N)(=O)=O,140 nM
18,CC1=C[C@@H](C(N)=O)N2C[C@@H]1N(OC(F)(F)C(=O)O)C2=O,36 nM
